Measured values from patent US20230293485A1, “APPLICATION OF ARTEMISININ COMPOUND IN TREATMENT OF CORONAVIRUS INFECTION” (ACADEMY OF MILITARY MEDICAL SCIENCES, priority 2020, published 2023).
Like-named read-outs stand apart in the source and are kept apart here.

Assays:
SARS-CoV-2 = assay type: cell-based; conditions: for Number of copies of viral genome (MOI = 0.05): Vero E6, 48 h; for Inhibitory activity on viral RNA load: dependence on dose (in words) / Viral nucleic acid load in vero E6 cells infected with SARS-CoV-2 (in words): 48 h after infection
Vero E6 cells = test: Detection of drug cytotoxicity by CCK-8 kit; assay type: cell-based; conditions: for Cell viability (% of negative control): 48 h
Procedure: The detection of drug cytotoxicity was performed by CCK-8 kit (Beoytime). Specific steps were as follows:
(1) 1×10^4 Vero E6 (ATCC) cells were inoculated into a 96-well plate and cultured at 37° C. for 8 hours.
(§1) (2) The test drug was diluted with DMSO to achieve an appropriate stock solution concentration, and then diluted with MEM medium (purchased from Gibco, Cat. No. 10370021) containing 2% FBS (purchased from Gibco, Cat. No. 16000044) to the same concentration as that for the drug treatment. The original medium in the 96-well plate was discarded, 100 μL of drug-containing MEM medium was added to the cells, and three replicate wells were made for each concentration. Negative controls (adding DMSO and medium to the cell wells without adding drug) and blank controls (no cells, adding DMSO and medium) were set. After the drug was added, the cells were cultured at 37° C. for 48 hours.
(3) 20 μL of CCK-8 solution (Beoytime) was added to the wells to be tested, mixed gently without generating air bubbles, and continued to incubate at 37° C. for 2 hours. OD450 was read on a microplate reader (purchased from Molecular Devices, model SpectraMax M5), and cell viability was calculated:
Cell viability (%)=(A(drug treatment group)−A(blank control))/(A(negative control)−A(blank control))×100%
wherein A represents reading of microplate reader.
as §1, with “of the” for “of”

In the case of `CO[C@H]1O[C@@H]2O[C@@]3(C)CC[C@H]4[C@H](C)CC[C@@H]([C@H]1C)[C@@]24OO3` [artemether], the “Number of copies of viral genome (MOI = 0.05)” value (from here on “Number”) (SARS-CoV-2; 6.25 μM drug) is reported as 49305413 copies, the “Number” value (SARS-CoV-2; 12.5 μM drug) is reported as 68497905 copies and the “Number” value (SARS-CoV-2; 25 μM drug) is reported as 32850309 copies. The “Number” value (SARS-CoV-2; 50 μM drug) was 26849476 copies, the “Number” value (SARS-CoV-2; 100 μM drug) was 3326694 copies and the “Number” value (SARS-CoV-2; 200 μM drug) was 250314 copies. The “Cell viability (% of negative control)” value (Vero E6 cells; 1.56 μM drug) was 107.12 % of negative control, the “Cell viability (% of negative control)” value (Vero E6 cells; 3.13 μM drug) was 103.68 % of negative control and the “Cell viability (% of negative control)” value (Vero E6 cells; 6.25 μM drug) was 115.71 % of negative control. The “Cell viability (% of negative control)” value (Vero E6 cells; 12.5 μM drug) was 115.49 % of negative control, the “Cell viability (% of negative control)” value (Vero E6 cells; 25 μM drug) was 118.96 % of negative control and the “Cell viability (% of negative control)” value (Vero E6 cells; 50 μM drug) was 120.26 % of negative control. For the same compound, the “Cell viability (% of negative control)” value (Vero E6 cells; 100 μM drug) was 130.18 % of negative control, the “Cell viability (% of negative control)” value (Vero E6 cells; 200 μM drug) was 132.83 % of negative control and the “Toxic effect on the cells (in words)” value (Vero E6 cells; all the tested concentrations) was “no toxic effect”.
`C[C@H]1[C@@H](O)O[C@@H]2O[C@@]3(C)CC[C@H]4[C@H](C)CC[C@@H]1[C@@]24OO3` [dihydroartemisinin] was tested, and the “Number” value (SARS-CoV-2; 0.94 μM drug) was 111625955 copies, the “Number” value (SARS-CoV-2; 1.88 μM drug) was 68962319 copies and the “Number” value (SARS-CoV-2; 3.13 μM drug) was 90162353 copies. The “Number” value (SARS-CoV-2; 6.25 μM drug) was 55425811 copies, the “Number” value (SARS-CoV-2; 12.5 μM drug) was 31485734 copies and the “Number” value (SARS-CoV-2; 25 μM drug) was 23363010 copies. The “Cell viability (% of negative control)” value (Vero E6 cells; 0.78 μM drug) was 93.93 % of negative control, the “Cell viability (% of negative control)” value (Vero E6 cells; 1.56 μM drug) was 98.80 % of negative control and the “Cell viability (% of negative control)” value (Vero E6 cells; 3.13 μM drug) was 93.03 % of negative control. For the same compound, the “Cell viability (% of negative control)” value (Vero E6 cells; 6.25 μM drug) was 100.38 % of negative control, the “Cell viability (% of negative control)” value (Vero E6 cells; 12.5 μM drug) was 88.94 % of negative control and the “Cell viability (% of negative control)” value (Vero E6 cells; 25 μM drug) was 66.36 % of negative control. For the same compound, the “Cell viability (% of negative control)” value (Vero E6 cells; 50 μM drug) was 22.18 % of negative control, the “Cell viability (% of negative control)” value (Vero E6 cells; 100 μM drug) was 2.33 % of negative control and the “Toxic effect on the cells (in words)” value (Vero E6 cells; at 6.25 μM or lower) was “no toxic effect”. For the same compound, the “Toxic effect on the cells (in words)” value (Vero E6 cells; at 12.5 μM) was “a slight toxicity”.
With `C[C@H]1[C@H](OC(=O)CCC(=O)O)O[C@@H]2O[C@@]3(C)CC[C@H]4[C@H](C)CC[C@@H]1[C@@]24OO3` [artesunate] the “Number” value (SARS-CoV-2; 0.94 μM drug) was 228511812 copies, the “Number” value (SARS-CoV-2; 1.88 μM drug) was 171362509 copies and the “Number” value (SARS-CoV-2; 3.13 μM drug) was 170594446 copies. For the same compound, the “Number” value (SARS-CoV-2; 6.25 μM drug) was 113126147 copies, the “Number” value (SARS-CoV-2; 12.5 μM drug) was 111098018 copies and the “Number” value (SARS-CoV-2; 25 μM drug) was 70210200 copies. For the same compound, the “Inhibitory activity on viral RNA load: dependence on dose (in words)” value (“Inhibitory activity on viral RNA load” for short) (SARS-CoV-2) was “dose-dependent”, the “Viral nucleic acid load in vero E6 cells infected with SARS-CoV-2 (in words)” value (“Viral nucleic acid load” below) (SARS-CoV-2) was “effectively reduced viral nucleic acid load” and the “Inhibition of replication of SARS-CoV-2 virus genome in the infection supernatant (in words)” value (“Inhibition” for short) (SARS-CoV-2; at 25 μM, 12.5 μM and 6.25 μM) was “effectively inhibit”. The “Cell viability (% of negative control)” value (Vero E6 cells; 0.78 μM drug) was 100.09 % of negative control, the “Cell viability (% of negative control)” value (Vero E6 cells; 1.56 μM drug) was 99.91 % of negative control and the “Cell viability (% of negative control)” value (Vero E6 cells; 3.13 μM drug) was 97.52 % of negative control. The “Cell viability (% of negative control)” value (Vero E6 cells; 6.25 μM drug) was 100.64 % of negative control, the “Cell viability (% of negative control)” value (Vero E6 cells; 12.5 μM drug) was 93.38 % of negative control and the “Cell viability (% of negative control)” value (Vero E6 cells; 25 μM drug) was 84.24 % of negative control. The “Cell viability (% of negative control)” value (Vero E6 cells; 50 μM drug) was 55.44 % of negative control, the “Cell viability (% of negative control)” value (Vero E6 cells; 100 μM drug) was 21.71 % of negative control and the “Toxic effect on the cells (in words)” value (Vero E6 cells; at 12.5 μM or lower) was “no toxic effect”. The “Toxic effect on the cells (in words)” value (Vero E6 cells; at 25 μM) was “a slight toxicity”.
For `C[C@@H]1CC[C@H]2[C@@H](C)C(=O)O[C@@H]3O[C@@]4(C)CC[C@@H]1[C@]32OO4` [artemisinin], the “Number” value (SARS-CoV-2; 6.25 μM drug) was 79058074 copies, the “Number” value (SARS-CoV-2; 12.5 μM drug) was 72012135 copies and the “Number” value (SARS-CoV-2; 25 μM drug) was 61918172 copies. For the same compound, the “Number” value (SARS-CoV-2; 50 μM drug) was 31079912 copies, the “Number” value (SARS-CoV-2; 100 μM drug) was 37237188 copies and the “Number” value (SARS-CoV-2; 150 μM drug) was 25440652 copies. The “Inhibitory activity on viral RNA load” value (SARS-CoV-2) was “dose-dependent”, the “Viral nucleic acid load” value (SARS-CoV-2) was “effectively reduced viral nucleic acid load” and the “Inhibition” value (SARS-CoV-2; at 150 μM, 100 μM and 50 μM) was “effectively inhibit”. The “Cell viability (% of negative control)” value (Vero E6 cells; 1.56 μM drug) was 98.45 % of negative control, the “Cell viability (% of negative control)” value (Vero E6 cells; 3.13 μM drug) was 101.55 % of negative control and the “Cell viability (% of negative control)” value (Vero E6 cells; 6.25 μM drug) was 104.23 % of negative control. The “Cell viability (% of negative control)” value (Vero E6 cells; 12.5 μM drug) was 112.55 % of negative control, the “Cell viability (% of negative control)” value (Vero E6 cells; 25 μM drug) was 104.26 % of negative control and the “Cell viability (% of negative control)” value (Vero E6 cells; 50 μM drug) was 110.71 % of negative control. The “Cell viability (% of negative control)” value (Vero E6 cells; 100 μM drug) was 109.14 % of negative control, the “Cell viability (% of negative control)” value (Vero E6 cells; 200 μM drug) was 97.14 % of negative control and the “Toxic effect on the cells (in words)” value (Vero E6 cells; all the tested concentrations) was “no toxic effect”.
In the case of `C=C1C(=O)O[C@@]23[C@H]1CC[C@@H](C)[C@@H]2CC[C@@]1(C)O[C@@H]31` [arteannuin B], the “Number” value (SARS-CoV-2; 1.56 μM drug) is reported as 99554711 copies, the “Number” value (SARS-CoV-2; 3.13 μM drug) is reported as 99188163 copies and the “Number” value (SARS-CoV-2; 6.25 μM drug) is reported as 98310684 copies. For the same compound, the “Number” value (SARS-CoV-2; 12.5 μM drug) was 13307075 copies, the “Number” value (SARS-CoV-2; 25 μM drug) was 342654 copies and the “Number” value (SARS-CoV-2; 50 μM drug) was 176411 copies. For the same compound, the “Inhibitory activity on viral RNA load” value (SARS-CoV-2) was “dose-dependent”, the “Viral nucleic acid load” value (SARS-CoV-2) was “effectively reduced viral nucleic acid load” and the “Inhibition” value (SARS-CoV-2; at 50 μM, 25 μM and 12.5 μM) was “effectively inhibit”. For the same compound, the “Cell viability (% of negative control)” value (Vero E6 cells; 0.78 μM drug) was 93.55 % of negative control, the “Cell viability (% of negative control)” value (Vero E6 cells; 1.56 μM drug) was 90.63 % of negative control and the “Cell viability (% of negative control)” value (Vero E6 cells; 3.13 μM drug) was 94.86 % of negative control. For the same compound, the “Cell viability (% of negative control)” value (Vero E6 cells; 6.25 μM drug) was 102.66 % of negative control, the “Cell viability (% of negative control)” value (Vero E6 cells; 12.5 μM drug) was 111.44 % of negative control and the “Cell viability (% of negative control)” value (Vero E6 cells; 25 μM drug) was 95.10 % of negative control. The “Cell viability (% of negative control)” value (Vero E6 cells; 50 μM drug) was 74.40 % of negative control, the “Cell viability (% of negative control)” value (Vero E6 cells; 100 μM drug) was 26.24 % of negative control and the “Toxic effect on the cells (in words)” value (Vero E6 cells; at 25 μM or lower) was “no toxic effect”. The “Toxic effect on the cells (in words)” value (Vero E6 cells; at 50 μM) was “a certain toxicity”.
